From patent US9616058B2, “Potent selective LSD1 inhibitors and dual LSD1/MAO-B inhibitors for antiviral use” (Oryzon Genomics, S.A., priority 2010, dated 2017)
pKi: −log10 of the molar value.

Legend:
Format in all cases: biochemical
[1] = target: T1, Human recombinant monoamine oxidase MAO-A (Homo sapiens, UniProt P21397); assay: Monoamine oxidase assay (kynuramine fluorescence), MAO-A; conditions: Ki measured at Vmax/2
T1 construct: purchased Sigma Aldrich
T1 sequence (P21397 1-527): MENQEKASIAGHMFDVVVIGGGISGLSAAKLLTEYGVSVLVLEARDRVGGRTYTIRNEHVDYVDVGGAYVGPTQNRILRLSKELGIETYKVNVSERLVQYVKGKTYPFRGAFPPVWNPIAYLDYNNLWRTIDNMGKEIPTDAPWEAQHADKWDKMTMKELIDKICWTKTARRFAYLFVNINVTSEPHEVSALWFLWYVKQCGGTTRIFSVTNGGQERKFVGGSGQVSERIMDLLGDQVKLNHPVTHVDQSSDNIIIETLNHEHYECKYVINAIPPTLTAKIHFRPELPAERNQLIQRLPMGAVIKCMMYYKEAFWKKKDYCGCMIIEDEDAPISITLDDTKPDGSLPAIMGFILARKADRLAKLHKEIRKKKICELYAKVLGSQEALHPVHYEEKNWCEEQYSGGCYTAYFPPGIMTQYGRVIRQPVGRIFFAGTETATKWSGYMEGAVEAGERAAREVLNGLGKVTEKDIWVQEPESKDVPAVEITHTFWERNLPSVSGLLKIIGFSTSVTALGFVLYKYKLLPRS
Procedure: (§1) MOAs catalyze the oxidative deamination of 1°, 2′ and 3° amines.
(§2) The Ki of each inhibitor was measure at Vmax/2.

[2] = target: T2, Human recombinant monoamine oxidase MAO-B (Homo sapiens, UniProt P27338); assay: Monoamine oxidase assay (kynuramine fluorescence), MAO-B; conditions: Ki measured at Vmax/2
T2 construct: purchased Sigma Aldrich
T2 sequence (P27338 1-520): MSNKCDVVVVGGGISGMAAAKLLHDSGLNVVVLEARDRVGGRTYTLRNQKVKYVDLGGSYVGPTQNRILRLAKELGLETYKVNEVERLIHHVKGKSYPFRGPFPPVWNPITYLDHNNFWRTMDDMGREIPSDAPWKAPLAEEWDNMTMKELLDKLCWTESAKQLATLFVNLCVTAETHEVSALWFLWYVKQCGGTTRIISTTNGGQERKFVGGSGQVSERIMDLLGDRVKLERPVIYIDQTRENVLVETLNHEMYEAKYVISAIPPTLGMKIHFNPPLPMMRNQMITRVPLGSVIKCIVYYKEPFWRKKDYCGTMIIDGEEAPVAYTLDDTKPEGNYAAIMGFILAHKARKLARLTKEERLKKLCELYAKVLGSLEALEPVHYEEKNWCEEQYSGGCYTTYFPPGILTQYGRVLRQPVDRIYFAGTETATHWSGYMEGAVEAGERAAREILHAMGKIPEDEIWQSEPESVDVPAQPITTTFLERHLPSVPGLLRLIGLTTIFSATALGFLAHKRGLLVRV
Procedure: as §1, §2

[3] = target: T3, Human recombinant LSD1 protein (Homo sapiens, UniProt O60341); assay: LSD1 demethylase inhibition assay (Amplex Red peroxide/peroxidase-coupled); conditions: Ki (IC50) estimated at half of the maximum activity
T3 construct: purchased BPS Bioscience Inc
Description: The compounds of the invention can be tested for their ability to inhibit LSD1.
The conversion of the Amplex®.

pKi [1]	pKi [2]	pKi [3]	SMILES
< 4.40	< 4.40	> 6.00	N[C@@H]1CCN(CCN[C@H]2CC2c2ccccc2)C1 (some centres unmarked) [1(A)]
< 4.52	< 4.52	> 6.00	c1ccc(C2C[C@@H]2NCCN2CCNCC2)cc1 (some centres unmarked) [1(B)]
4.52 to 4.70			NC(=O)CN[C@H]1CC1c1ccc(OCc2cc(F)cc(F)c2)cc1 (some centres unmarked) [2(B)]
~5.00			c1ccc(C2C[C@@H]2NCCNC2CC2)cc1 (some centres unmarked) [Compound 2(A)]
